test system: VCaP cells; test: Cytotoxicity assessment (Cell-titer-glo cell viability), VCaP; details: read-out: VCaP (CC50); VCaP cells, 6 days of treatment, Cell-titer-glo, vs DMSO
Experimental: In order to evaluate the androgen receptor (AR) cytotoxicity of the compounds according to the present invention, the following experiment was conducted. Specifically, 1.5×10^3 (LNCaP) or 4×10^3 (VCaP, 22RV1), respectively, of LNCaP, VCaP, and 22RV1 cells were injected into each well of a 96-well plate. The next day, each well was treated with the compound at a final concentration of 3 nM, 10 nM, 30 nM, 100 nM, 300 nM, 1 μM, 3 μM, and 10 μM. […] After 6 days of treatment, Cell-titer-glo (promega) was treated and reacted for 10 minutes, and cell viability was measured with a multimode plate reader (PerkinElmer, Inc.), and the change was quantified compared to when DMSO was treated.

Compound	CC50 [nM]
CC1(C)C(NC(=O)c2ccc(-n3cc(CCOCCOCCNC(=O)C4CCN(c5ccc6nnn(C7CCC(=O)NC7=O)c(=O)c6c5)CC4)nn3)cc2)C(C)(C)C1Oc1ccc(C#N)c(Cl)c1 (stereo not shown) [Example 158, N-(2-(2-(2-(1-(4-(((1r,3r)-3-(3-chloro-4-cyanophenoxy)-2,2,4,4-tetramethylcyclobutyl)carbamoyl)phenyl)-1H-1,2,3-triazol-4-yl)ethoxy)ethoxy)ethyl)-1-(3-(2,6-dioxopiperidin-3-yl)-4-oxo-3,4-dihydrobenzo[d][1,2,3]triazin-6-yl)piperidine-4-carboxamide]	38.8
CC1(C)C(NC(=O)c2ccc(N3CC4CN(CC5CCN(C(=O)C6CCN(c7ccc8nnn(C9CCC(=O)NC9=O)c(=O)c8c7)CC6)CC5)CC4C3)cc2)C(C)(C)C1Oc1ccc(C#N)c(Cl)c1 (stereo not shown) [Example 139, N-((1r,3r)-3-(3-chloro-4-cyanophenoxy)-2,2,4,4-tetramethylcyclobutyl)-4-(5-((1-(1-(3-(2,6-dioxopiperidin-3-yl)-4-oxo-3,4-dihydrobenzo[d][1,2,3]triazin-6-yl)piperidine-4-carbonyl)piperidin-4-yl)methyl)hexahydropyrrolo[3,4-c]pyrrol-2(1H)-yl)benzamide]	69.5
CC1(C)C(NC(=O)c2ccc(-n3cc(CCNC(=O)CNc4ccc5nnn(C6CCC(=O)NC6=O)c(=O)c5c4)nn3)cc2)C(C)(C)C1Oc1ccc(C#N)c(Cl)c1 (stereo not shown) [Example 156, N-((1r,3r)-3-(3-chloro-4-cyanophenoxy)-2,2,4,4-tetramethylcyclobutyl)-4-(4-(2-(2-((3-(2,6-dioxopiperidin-3-yl)-4-oxo-3,4-dihydrobenzo[d][1,2,3]triazin-6-yl)amino)acetamido)ethyl)-1H-1,2,3-triazol-1-yl)benzamide]	936
CC1(C)C(NC(=O)c2ccc(-n3cc(CNC(=O)C4CN(c5ccc6nnn(C7CCC(=O)NC7=O)c(=O)c6c5)C4)nn3)cc2)C(C)(C)C1Oc1ccc(C#N)c(Cl)c1 (stereo not shown) [Example 151, N-((1-(4-(((1r,3r)-3-(3-chloro-4-cyanophenoxy)-2,2,4,4-tetramethylcyclobutyl)carbamoyl)phenyl)-1H-1,2,3-triazol-4-yl)methyl)-1-(3-(2,6-dioxopiperidin-3-yl)-4-oxo-3,4-dihydrobenzo[d][1,2,3]triazin-6-yl)azetidine-3-carboxamide]	25.6
CC1(C)C(NC(=O)c2ccc(N3CCN(CC4CCN(CCNC(=O)CNc5ccc6nnn(C7CCC(=O)NC7=O)c(=O)c6c5)CC4)CC3)cc2)C(C)(C)C1Oc1ccc(C#N)c(Cl)c1 (stereo not shown) [Example 59, N-((1r,3r)-3-(3-chloro-4-cyanophenoxy)-2,2,4,4-tetramethylcyclobutyl)-4-(4-((1-(2-(2-((3-(2,6-dioxopiperidin-3-yl)-4-oxo-3,4-dihydrobenzo[d][1,2,3]triazin-6-yl)amino)acetamido)ethyl)piperidin-4-yl)methyl)piperazin-1-yl)benzamide]	~1000
CC1(C)C(NC(=O)c2ccc(C#CCC3CCN(CC4CCN(C(=O)CNc5ccc6nnn(C7CCC(=O)NC7=O)c(=O)c6c5)CC4)CC3)nc2)C(C)(C)C1Oc1ccc(C#N)c(Cl)c1 (stereo not shown) [Example 128, N-((1r,3r)-3-(3-chloro-4-cyanophenoxy)-2,2,4,4-tetramethylcyclobutyl)-6-(3-(1-((1-((3-(2,6-dioxopiperidin-3-yl)-4-oxo-3,4-dihydrobenzo[d][1,2,3]triazin-6-yl)glycyl)piperidin-4-yl)methyl)piperidin-4-yl)prop-1-yn-1-yl)nicotinamide]	11
CC1(C)C(NC(=O)c2ccc(-n3cc(CCNC(=O)C4CN(c5ccc6nnn(C7CCC(=O)NC7=O)c(=O)c6c5)C4)nn3)cc2)C(C)(C)C1Oc1ccc(C#N)c(Cl)c1 (stereo not shown) [Example 155, N-(2-(1-(4-(((1r,3r)-3-(3-chloro-4-cyanophenoxy)-2,2,4,4-tetramethylcyclobutyl)carbamoyl)phenyl)-1H-1,2,3-triazol-4-yl)ethyl)-1-(3-(2,6-dioxopiperidin-3-yl)-4-oxo-3,4-dihydrobenzo[d][1,2,3]triazin-6-yl)azetidine-3-carboxamide]	177
CC1(C)C(NC(=O)c2ccc(C#CCC3CCN(CC4CCN(C(=O)C5CCN(c6ccc7nnn(C8CCC(=O)NC8=O)c(=O)c7c6)CC5)CC4)CC3)nc2)C(C)(C)C1Oc1ccc(C#N)c(Cl)c1 (stereo not shown) [Example 126, N-((1r,3r)-3-(3-chloro-4-cyanophenoxy)-2,2,4,4-tetramethylcyclobutyl)-6-(3-(1-((1-(1-(3-(2,6-dioxopiperidin-3-yl)-4-oxo-3,4-dihydrobenzo[d][1,2,3]triazin-6-yl)piperidine-4-carbonyl)piperidin-4-yl)methyl)piperidin-4-yl)prop-1-yn-1-yl)nicotinamide]	40
CC1(C)[C@H](NC(=O)c2ccc(-n3cc(CN4CCN(C(=O)CNc5ccc6nnn(C7CCC(=O)NC7=O)c(=O)c6c5)CC4)nn3)cc2)C(C)(C)[C@H]1Oc1ccc(C#N)c(Cl)c1 (stereo partly shown) [Example 123, N-((1r,3r)-3-(3-chloro-4-cyanophenoxy)-2,2,4,4-tetramethylcyclobutyl)-4-(4-((4-((3-(2,6-dioxopiperidin-3-yl)-4-oxo-3,4-dihydrobenzo[d][1,2,3]triazin-6-yl)glycyl)piperazin-1-yl)methyl)-1H-1,2,3-triazol-1-yl)benzamide]	55
CC1(C)C(NC(=O)c2ccc(-n3cc(CCNc4ccc5nnn(C6CCC(=O)NC6=O)c(=O)c5c4)nn3)cc2)C(C)(C)C1Oc1ccc(C#N)c(Cl)c1 (stereo not shown) [Example 153, N-((1r,3r)-3-(3-chloro-4-cyanophenoxy)-2,2,4,4-tetramethylcyclobutyl)-4-(4-(2-((3-(2,6-dioxopiperidin-3-yl)-4-oxo-3,4-dihydrobenzo[d][1,2,3]triazin-6-yl)amino)ethyl)-1H-1,2,3-triazol-1-yl)benzamide]	45.4
CC1(C)C(NC(=O)c2ccc(C#CCC3CCN(CC4CCN(c5ccc6nnn(C7CCC(=O)NC7=O)c(=O)c6c5)CC4)CC3)nc2)C(C)(C)C1Oc1ccc(C#N)c(Cl)c1 (stereo not shown) [Example 129, N-((1r,3r)-3-(3-chloro-4-cyanophenoxy)-2,2,4,4-tetramethylcyclobutyl)-6-(3-(1-((1-(3-(2,6-dioxopiperidin-3-yl)-4-oxo-3,4-dihydrobenzo[d][1,2,3]triazin-6-yl)piperidin-4-yl)methyl)piperidin-4-yl)prop-1-yn-1-yl)nicotinamide]	19.4
CC1(C)C(NC(=O)c2ccc(C#CCC3CCN(CC4CCN(C(=O)CNc5ccc6nnn(C7CCC(=O)NC7=O)c(=O)c6c5)CC4)CC3)cc2)C(C)(C)C1Oc1ccc(C#N)c(Cl)c1 (stereo not shown) [Example 118, N-((1r,3r)-3-(3-chloro-4-cyanophenoxy)-2,2,4,4-tetramethylcyclobutyl)-4-(3-(1-((1-((3-(2,6-dioxopiperidin-3-yl)-4-oxo-3,4-dihydrobenzo[d][1,2,3]triazin-6-yl)glycyl)piperidin-4-yl)methyl)piperidin-4-yl)prop-1-yn-1-yl)benzamide]	17
CC1(C)C(NC(=O)c2ccc(C#CC3CCN(C(=O)C4CCN(c5ccc6nnn(C7CCC(=O)NC7=O)c(=O)c6c5)CC4)CC3)cc2)C(C)(C)C1Oc1ccc(C#N)c(Cl)c1 (stereo not shown) [Example 141, N-((1r,3r)-3-(3-chloro-4-cyanophenoxy)-2,2,4,4-tetramethylcyclobutyl)-4-((1-(1-(3-(2,6-dioxopiperidin-3-yl)-4-oxo-3,4-dihydrobenzo[d][1,2,3]triazin-6-yl)piperidine-4-carbonyl)piperidin-4-yl)ethynyl)benzamide]	11.5
